US4243681A, “Alkylthiophenoxypropanolamines and pharmaceutical compositions and uses thereof” (priority 1979, dated 1981)

Columns and labels:
perfused dog hind limb = assay: Peripheral vasodilator activity, perfused dog hind limb (anesthetized dog); format: in vivo
Description: Test Method. Mongrol dogs of either sex weighing between 11 and 16 kg., each, were anesthetized with pentobarbital (30 mg./kg.) administered intravenously. The left brachial vein was cannulated and pentobarbital infused continuously throughout the experiment at a rate of 5 mg./kg./hr. A tracheotomy was performed and dogs ventilated mechanically with room air at a rate of 18 strokes/min. and a volume equivalent to 20 ml./kg. The vagi were sectioned bilaterally in the mid-cervical region of the neck. The right brachial vein and artery were cannulated to inject drugs and to monitor blood pressure via a Statham pressure transducer, respectively. All measurements were recorded on a Beckman-Offner dynograph. The abdominal aorta was exposed through midline incision and a loose ligature placed around the aorta distal to the left renal artery. The right (donor) and left (recipient) femoral arteries were exposed for cannulation and subsequent hind-limb perfursion. Following intravenous administration of heparin (5 mg/kg.) and gallamine triethiodide (2 mg./kg.), the right femoral artery was cannulated and the tip of the catheter advanced into the abdominal aorta to the level of the renal arteries. The left femoral artery was cannulated and the hind-limb perfused using a Harvard Perfusion pump. The ligature previously placed around the aorta was subsequently tied to minimize collateral circulation. […] Perfusion pressure, measured at a point distal to the perfusion pump was set equal to 150 mm Hg. by adjusting pump speed. Blood flow to the limb was determined volumetrically at the conclusion of the experiment. The test agent was administered by infusion at a rate of from 0.1-1.0 mg./min. for a six-minute period and maximum reduction in pressure determined. One to three animals were employed per test agent. […] This protocol precludes effects resulting from animal variation thus permitting a direct side-by-side comparison of vasodilating activity.

[1] = test system: human platelet-rich plasma; assay: Inhibition of platelet aggregation in vitro (ADP or collagen induced; antithrombogenic activity); format: cell-based; settings: for ED50 ADP (inhibition of platelet aggregation): aggregation induced by 1 mcg. ADP; for ED50 Coll (inhibition of platelet aggregation): minimal amount of collagen producing maximal aggregation
Description: Test Method. A method similar to that described in Born, Nature 194, 927 (1962) and O'Brien, J. Clinical Pathology 15, 446 (1962). This test comprises a nephelometric method in which the change in turbidity of a specimen of human platelet-rich plasma is measured on causation of platelet aggregation by addition of adenosine diphosphate (ADP) or collagen as the thrombogenic inducing agent. An increase in transmittance light occurs when the thrombogenic agent is added to the specimen of platelet-rich plasm due to clumping of platelets. Efficacy of the test compound is determined by ability to prevent the clumping and concommitant increase in transmittance. Various concentrations of the test agent are tested and that concentration causing a 50% reduction in the thrombogenic response is determined from a concentration-response curve.

adrenergic beta-receptor = biological target: T1, adrenergic beta-receptor (Cavia porcellus, UniProt Q8K4Z4); assay: Beta-adrenergic blocking activity in the isolated guinea pig trachea (isoproterenol); format: cell-based; settings: for Beta-Adrenergic Blocking Potency: potency relative to propanol (equals one), isoproterenol 0.1 mcg./ml.
T1 construct: Tracheas excised from adult guinea pigs; from tissue; host or cells: guinea pig trachea (spirally cut segments)
T1 sequence (Q8K4Z4 whole entry): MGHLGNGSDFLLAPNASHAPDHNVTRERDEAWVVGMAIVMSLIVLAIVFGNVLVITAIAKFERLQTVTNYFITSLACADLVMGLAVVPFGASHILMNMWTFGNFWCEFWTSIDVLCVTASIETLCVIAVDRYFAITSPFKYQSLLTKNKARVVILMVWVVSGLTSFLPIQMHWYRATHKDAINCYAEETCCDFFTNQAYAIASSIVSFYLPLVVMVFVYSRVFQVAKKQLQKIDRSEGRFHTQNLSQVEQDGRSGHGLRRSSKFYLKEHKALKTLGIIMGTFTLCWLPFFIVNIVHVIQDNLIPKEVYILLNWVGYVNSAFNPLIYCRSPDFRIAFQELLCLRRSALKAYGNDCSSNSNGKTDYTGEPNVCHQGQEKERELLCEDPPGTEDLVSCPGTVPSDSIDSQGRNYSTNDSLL
Description: Test Method. […] The lower end of a tracheal segment is fixed to a stationary glass rod and the upper end is threaded to an isometric tension transducer. Changes in the spontaneous tonus of the tracheal smooth muscle are monitored via the transducer and recorded continuously on an electronic recorder. Adrenergic beta-receptor blocking activity is determined by the ability of a test agent to inhibit the response of the isolated tissue to the adrenergic beta-stimulant "isoproterenol" at a concentration of 0.1 mcg./ml. bath fluid. The tissues are exposed to the test agent solution for a 15-min. interval prior to the addition of isoproterenol to the bath fluid. Beta-receptor blocking potency of a test drug is ascertained from concentration-response relationships wherein the response is expressed as a percent inhibition of isoproterenol-induced tissue response. […] Each drug solution is added to the tissue bathing medium at a constant volume of 0.2 ml./ml. of bath fluid and only one test drug concentration is employed for an individual tissue segment. Potency of the test agent relative to that of the beta-adrenergic blocking agent "propanolol" as a reference standard is assessed by comparing the IC50 values.

rabbit thoracic aorta = assay: Isolated rabbit thoracic aorta, antispasmodic activity vs. potassium chloride; format: cell-based, rabbit (New Zealand White); settings: for Antispasmodic Potency: potency relative to papaverine (equals one), from pA2 vs. potassium chloride
Description: (§1) Test Method. Antispasmodic activity was assessed in vitro by determining the effect of the test substance on induced contraction of arterial smooth muscle as follows. Adult, male, New Zealand White rabbits (body weight 2.5-4 kg.) were used. Each rabbit was killed by i.v. air injection. The thorax was opened and the descending thoracic aorta removed and placed in Kreb's-bicarbonate solution. Extraneous tissue was removed and the aorta was cut spirally along its entire length. Four spiral segments, each approximately 2 cm. in length (unstretched), were obtained from each thoracic aorta. […] The bath medium surrounding the aortic spiral (Kreb's-bicarbonate solution) was maintained at 37.5°C. and constantly aerated with 95% O2 :5% CO2. Activity of the aortic smooth muscle was recorded on an electronic polygraph via its connection to the tension transducer. After an equilibration period of 60 min., a cumulative dose-response curve was obtained to an agonist (e.g. potassium chloride or norepinephrine) and the tissue then washed. Seventy-five min. later, a second cumulative dose-response curve to the agonist was obtained and the tissue washed again. Sixty min. later, a test drug solution was added to the tissue bath fluid and, after 15 min., drug exposure and, without washing, a third and final agonist-response curve was obtained. All additions to the bath fluid were 0.1 ml. volumes of aqueous solutions.

platelet survival = assay: Platelet survival time in rats with intra-arterial catheters; format: in vivo, rat
Excerpt: (a) Rats with intra-arterial catheters have periods of shortened platelet survival time. This shortened survival time is normalized with the compound of Example 2.

mesenteric arteries [2] = assay: Basal tone of mesenteric arteries of dogs; design: species or system dog
Excerpt: (§2) (b) The compound of Example 2 elevated basal tone of mesenteric arteries of dogs and rabbits. This effect is considered valuable in the treatment of peripheral and cerebral vascular diseases.

mesenteric arteries [3] = assay: Basal tone of mesenteric arteries of rabbits; design: species or system rabbit
Excerpt: as §2

red blood cell = assay: Red blood cell rigidity via chromium^51 labeling technique; format: cell-based
rabbit eye = assay: Local anesthetic activity, topical application to the rabbit eye; format: in vivo
guinea pig skin = assay: Local anesthetic activity, intradermal infiltration of guinea pig skin; format: in vivo
alpha-adrenergic = assay: Isolated rabbit thoracic aorta, antispasmodic (anti-alpha-adrenergic) activity vs. norepinephrine; format: cell-based, rabbit (New Zealand White); settings: norepinephrine as agonist
Description: as §1, with “solutions. […] Selective activity against norepinephrine-induced spasms is indicative of alpha-adrenergic blocking (i.e. antispasmodic) activity. […] Phentolamine is an alpha-adrenergic blocking agent and a standard reference in the art. […] This experiment illustrates that the instant compounds are non-anti-alpha-adrenergic antispasmodic agents in that they have a substantial direct smooth muscle relaxant effect (as shown in Example 34) relatively uncomplicated by any significant selective alpha-adrenergic blocking effect.” for “solutions.”

[4] = 0.3 mg./min., side-by-side comparison
[5] = infusion rate 0.3 mg./min., side-by-side comparison in same animals

Row | SMILES | vasodilator effect relative to test agent A (perfused dog hind limb; [4]) | vasodilator effect relative to test agent B (perfused dog hind limb; [4]) | Pressure Decrease (perfused dog hind limb; infusion rate 0.3 mg./min.) | Pressure Decrease (perfused dog hind limb; [5]) | Pressure Decrease (perfused dog hind limb; infusion rate 1.0 mg./min.) | ED50 ADP (inhibition of platelet aggregation) [1] | ED50 Coll (inhibition of platelet aggregation) [1] | Beta-Adrenergic Blocking Potency (adrenergic beta-receptor) | Antispasmodic Potency (rabbit thoracic aorta) | shortened platelet survival time (platelet survival) | basal tone of mesenteric arteries (mesenteric arteries [2]) | basal tone of mesenteric arteries (mesenteric arteries [3]) | red blood cell rigidity (red blood cell) | local anesthetic activity vs. lidocaine (rabbit eye) | local anesthetic activity vs. lidocaine (guinea pig skin) | pressure reduction (findings, range over compounds) (perfused dog hind limb; infusion dose 1.0 mg./min.) | Pressure Decrease (perfused dog hind limb; infusion rate 1.0 mg./min., side-by-side comparison in same animals) | beta-adrenergic blocking activity (in words) (adrenergic beta-receptor) | antispasmodic activity (in words) (rabbit thoracic aorta; potassium chloride-induced spasms) | anti-alpha-adrenergic activity (in words) (alpha-adrenergic)
1 | CCCCCCCCNCC(O)COc1ccc(SC(C)C)cc1.Cl (stereo not shown) [Example 2, 1-[4-[(1-Methylethyl)thio]phenoxy]-3-(octylamino)-2-propanol Hydrochloride] | approximately 3.2 times | ~21 times | -44 Millimeters of mercury | -63 Millimeters of mercury | -99 Millimeters of mercury | 56 Microgram/0.5 ml. plateletrich human plasma | 31 Microgram/0.5 ml. plateletrich human plasma | < 0.001 | 0.6 | normalized | elevated | elevated | decreased | greater than | as great as |  |  |  |  | 
2 | CSc1ccc(OCC(O)CNC(C)C)cc1 (stereo not shown) [Test agent B, 1-(isopropylamino)-3-[4-(methylthio)phenoxy]-2-propanol, reference compound] |  |  |  | -3 Millimeters of mercury |  | 107 Microgram/0.5 ml. plateletrich human plasma | 28 Microgram/0.5 ml. plateletrich human plasma | 0.2 | 0.04 |  |  |  |  |  |  | 27-29 mm Hg | -29 Millimeters of mercury | substantial activity | relatively weak activity | essentially inactive
